Test results: patent publication US20220323406A1, “METHODS AND COMPOSITIONS FOR DIFFERENTIATING STEM CELLS” (Massachusetts Institute of Technology, priority 2019, published 2022)

System: Paneth cells in ENR+CD organoids
Test: Flow cytometry of 3D-cultured intestinal organoids, Paneth cells (lysozyme-positive, CD24-positive)
Assay type: cell-based, mouse
From the text: Flow cytometry analysis (3D culture). ISC-enriched organoids cultured in 3D Matrigel with ENRCV media were passaged to 24-well plate in 3D Matrigel with ENRCV. At day zero, media were replaced to ENRCD with or without indicated compounds, and media were replaced every other day. At day six, cells were washed with basal media, and then harvested from Matrigel by mechanical disruption in TrypLE Express (ThermoFisher, 12605010) to remove Matrigel and dissociate organoids to single cells. After vigorous pipetting and incubation at 37° C. for 20 min, dissociated organoids were strained through a 35 μm cell strainer into a tube (Falcon, 352235). […] Cell pellets were resuspended in FACS buffer (2% FBS in PBS), and then transferred to an ultra low-bind 96-well plate (Corning, 7007). Cells were stained with Zombie-violet viability dye (BioLegend, 423107) at 100× for viability staining and/or antibody staining solution. FITC-conjugated antibody for lysozyme (Dako, F0372) and APC-conjugated antibody for CD24 (BioLegend, 138505) were used at 100× dilution. Flow cytometry was performed using an LSR Fortessa (BD; Koch Institute Flow Cytometry Core at MIT). The data were analyzed using FlowJo v10 software.
The results of primary and secondary screening reflect a mixture of potential effects arising from small molecule treatment which may result in increases in total LYZ secretion. This includes contributions from enhanced Paneth cell differentiation, altered Paneth cell activity and changes in total cell number concurrent with differentiation. To better inform how the 6 compounds identified in the screen increased total secreted LYZ, and to isolate only those which enhance Paneth differentiation robustly, Applicants next utilized flow cytometry to measure the changes in Paneth cell representation within the treated organoids. […] Single live cells were selected by several gating strategies and Paneth cells were identified as lysozyme-high, CD24-mid, side scatter-high (SSC-high) (FIG. 27E). […] To evaluate whether the culture media supplements C and D may alter the effects of the 6 hits, Applicants also performed lysozyme assay in the canonical ENR culture condition in 3-D (because Paneth cells exist in an immature state within ENR, Applicants were unable to robustly quantify Paneth cell number via flow cytometry).
Flow cytometry. ISC-enriched organoids in 3D Matrigel culture were passaged to a 48-well plate and induced differentiation for 6 days by ENR+CD media containing DMSO or each drug indicated in the figures. DMSO- or drug-containing media were changed every other day. On day 6, cells were washed twice with basal media, then harvested from Matrigel by the mechanical disruption in TrypLE Express (Thermo, #12605010) to remove Matrigel and dissociate organoids to single cells. After vigorous pipetting and incubation at 37° C. for 15 min, the cell solution was diluted twice with basal media and centrifuged at 300 ref for 3 min. The cell pellet was resuspended in FACS buffer (PBS containing 2% FBS) and replaced into a 96-well Clear Round Bottom Ultra-Low Attachment Microplate (Corning, #7007). The cell solution was centrifuged again at 300 rcf for 3 min at 4° C. to pellet the cells. Cells were stained with Zombie-violet dye (BioLegend, #423113) at 100× for viability staining for 20 min at RT in the dark. After centrifugation for 3 min at 300 rcf, cells were fixed in fixation buffer (FACS buffer containing 1% formaldehyde (Thermo, #28906)) for 15 min on ice in the dark. Cells were centrifuged again for 3 min at 300 rcf and blocked with staining buffer (FACS buffer containing 0.5% Tween20 (Sigma, P2287)) for 15 min at RT in the dark. Pelleted cells by the centrifugation for 3 min at 300 rcf are stained with FITC-conjugated anti-lysozyme antibody (Dako, F0372) and APC-conjugated anti-CD24 antibody (Biolegend, #138505) at 100× for 45 min at RT in the dark.

[1] = 2-day treatment within 6-day ENR+CD differentiation, read at day 6

O=C(/C=C\n1cnc(-c2cc(C(F)(F)F)cc(C(F)(F)F)c2)n1)NNc1cnccn1 [KPT-330]
enrichment in mature Paneth cells, treatment day 0-2 [1]: greatest enrichment in mature Paneth cells
enrichment in mature Paneth cells, treatment day 2-4 [1]: moderate enrichment
enrichment in mature Paneth cells, treatment day 4-6 (by flow cytometry) [1]: no different than untreated
increase in mature Paneth cells at day 6 of differentiation (ENR+CD + KPT-330 vs control): 2 fold
mature Paneth cell population within organoids (most potent dose from 2.5-D screening, ENR+CD 6 days, 3-D culture): significantly enhanced the mature Paneth cell population
